From the NIST ThermoML archive (doi:10.1016/j.jct.2014.05.014)
Numbers after ± are expanded uncertainties.

Test: cn = amount concentration of the nth substance listed, in mol/dm3
Settings: 101.3 kPa, Liquid; for viscosity: Falling or rolling sphere viscometry; for mass density: Vibrating tube method; for electrical conductivity: Alternating current cell with electrodes

CC(N)C(=O)[O-].[K+] (stereo not drawn) [potassium DL-alaninate] + O
Settings	electrical conductivity [S/m]	mass density [kg/m3]	viscosity [mPa·s]
323.15 K, c1 = 0.495	–	1016.2 ± 1.6	–
323.15 K, c1 = 1.014	–	1043.4 ± 1.7	–
323.15 K, c1 = 1.509	–	1069.9 ± 1.8	–
323.15 K, c1 = 1.954	–	1094.2 ± 1.9	–
323.15 K, c1 = 1.999	–	–	1.069 ± 0.024
323.15 K, c1 = 2.507	–	1121.8 ± 2	–
323.15 K, c1 = 2.522	–	–	1.301 ± 0.031
323.15 K, c1 = 2.988	–	1145.7 ± 2.2	–
323.15 K, c1 = 3.048	–	–	1.549 ± 0.037
323.15 K, c1 = 3.499	–	1170.3 ± 2.4	–
328.15 K, c1 = 0.495	–	1013.9 ± 1.6	–
328.15 K, c1 = 0.514	–	–	0.596 ± 0.013
328.15 K, c1 = 0.526	5.89 ± 0.12	–	–
328.15 K, c1 = 1.009	9.68 ± 0.2	–	–
328.15 K, c1 = 1.014	–	1041 ± 1.7	–
328.15 K, c1 = 1.029	–	–	0.703 ± 0.015
328.15 K, c1 = 1.499	12.2 ± 0.25	–	–
328.15 K, c1 = 1.509	–	1067.4 ± 1.8	–
328.15 K, c1 = 1.524	–	–	0.854 ± 0.019
328.15 K, c1 = 1.954	–	1091.5 ± 1.9	–
328.15 K, c1 = 1.999	–	–	0.985 ± 0.022
328.15 K, c1 = 2.018	13.8 ± 0.28	–	–
328.15 K, c1 = 2.501	14.6 ± 0.29	–	–
328.15 K, c1 = 2.507	–	1119 ± 2	–
328.15 K, c1 = 2.522	–	–	1.201 ± 0.028
328.15 K, c1 = 2.988	–	1143 ± 2.2	–
328.15 K, c1 = 3.046	14.9 ± 0.3	–	–
328.15 K, c1 = 3.048	–	–	1.413 ± 0.033
328.15 K, c1 = 3.497	14.7 ± 0.29	–	–
328.15 K, c1 = 3.499	–	1167.5 ± 2.3	–
333.15 K, c1 = 0.495	–	1011.5 ± 1.6	–
333.15 K, c1 = 0.514	–	–	0.547 ± 0.012
333.15 K, c1 = 0.526	6.27 ± 0.13	–	–
333.15 K, c1 = 1.009	10.3 ± 0.22	–	–
333.15 K, c1 = 1.014	–	1038.5 ± 1.7	–
333.15 K, c1 = 1.029	–	–	0.649 ± 0.014
333.15 K, c1 = 1.499	13 ± 0.27	–	–
333.15 K, c1 = 1.509	–	1064.9 ± 1.8	–
333.15 K, c1 = 1.524	–	–	0.799 ± 0.018
333.15 K, c1 = 1.954	–	1088.8 ± 1.9	–
333.15 K, c1 = 1.999	–	–	0.902 ± 0.02
333.15 K, c1 = 2.018	14.6 ± 0.3	–	–
333.15 K, c1 = 2.501	15.5 ± 0.31	–	–
333.15 K, c1 = 2.507	–	1116.3 ± 2	–
333.15 K, c1 = 2.522	–	–	1.104 ± 0.026
333.15 K, c1 = 2.988	–	1140.2 ± 2.2	–
333.15 K, c1 = 3.046	15.8 ± 0.32	–	–
333.15 K, c1 = 3.048	–	–	1.286 ± 0.03
333.15 K, c1 = 3.497	15.7 ± 0.31	–	–
333.15 K, c1 = 3.499	–	1164.6 ± 2.3	–
338.15 K, c1 = 0.495	–	1008.9 ± 1.6	–
338.15 K, c1 = 0.514	–	–	0.507 ± 0.011
338.15 K, c1 = 0.526	6.64 ± 0.14	–	–
338.15 K, c1 = 1.009	10.8 ± 0.23	–	–
338.15 K, c1 = 1.014	–	1035.9 ± 1.7	–
338.15 K, c1 = 1.029	–	–	0.602 ± 0.013
338.15 K, c1 = 1.499	13.8 ± 0.28	–	–
338.15 K, c1 = 1.509	–	1062.1 ± 1.8	–
338.15 K, c1 = 1.524	–	–	0.742 ± 0.016
338.15 K, c1 = 1.954	–	1086.1 ± 1.9	–
338.15 K, c1 = 1.999	–	–	0.83 ± 0.019
338.15 K, c1 = 2.018	15.5 ± 0.31	–	–
338.15 K, c1 = 2.501	16.4 ± 0.33	–	–
338.15 K, c1 = 2.507	–	1113.5 ± 2	–
338.15 K, c1 = 2.522	–	–	1.015 ± 0.024
338.15 K, c1 = 2.988	–	1137.3 ± 2.2	–
338.15 K, c1 = 3.046	16.8 ± 0.34	–	–
338.15 K, c1 = 3.048	–	–	1.176 ± 0.027
338.15 K, c1 = 3.497	16.7 ± 0.33	–	–
338.15 K, c1 = 3.499	–	1161.6 ± 2.3	–
343.15 K, c1 = 0.495	–	1006.3 ± 1.6	–
343.15 K, c1 = 0.514	–	–	0.475 ± 0.01
343.15 K, c1 = 0.526	7.02 ± 0.15	–	–
343.15 K, c1 = 1.009	11.4 ± 0.24	–	–
343.15 K, c1 = 1.014	–	1033.1 ± 1.7	–
343.15 K, c1 = 1.029	–	–	0.563 ± 0.012
343.15 K, c1 = 1.499	14.5 ± 0.3	–	–
343.15 K, c1 = 1.509	–	1059.4 ± 1.8	–
343.15 K, c1 = 1.524	–	–	0.693 ± 0.015
343.15 K, c1 = 1.954	–	1083.4 ± 1.9	–
343.15 K, c1 = 1.999	–	–	0.77 ± 0.017
343.15 K, c1 = 2.018	16.3 ± 0.33	–	–
343.15 K, c1 = 2.501	17.4 ± 0.35	–	–
343.15 K, c1 = 2.507	–	1110.5 ± 2	–
343.15 K, c1 = 2.522	–	–	0.94 ± 0.022
343.15 K, c1 = 2.988	–	1134.4 ± 2.2	–
343.15 K, c1 = 3.046	17.8 ± 0.36	–	–
343.15 K, c1 = 3.048	–	–	1.087 ± 0.025
343.15 K, c1 = 3.497	17.7 ± 0.35	–	–
343.15 K, c1 = 3.499	–	1158.6 ± 2.3	–
